Experimental data as given in PubChem BioAssay AID2060502 (Molecular Pharmacology Branch, DTP, NCI, 2025).

Tested on: 885724-159-R-J1-PDC complex spheroid viability
Experiment: Anticancer human tumor 885724-159-R-J1-PDC patient-derived pancreatic adenocarcinoma cell line growth inhibition [GQUAD]
Details: for IC50: curve of first compound; for viability, T/C: stronger effect = lower value; active means viability on the fitted dose curve at most 10% of control; inactive means the rest
Excerpt: DNA G-quadruplex Stabilizer Agents in Combinations in Complex Spheroids
A high-throughput screen of multi-cell type tumor spheroids was designed to identify active combinations of DNA G-quadruplex stabilizer agents and targeted small molecules. Complex spheroids include a stromal component modeled by human endothelial cells (HUVEC) and fibroblasts modeled by human mesenchymal stem cells (MSCs). The concentration ranges selected for each drug and investigational agent were based upon clinically achievable concentrations if the clinical Cmax of the agent was known.
Compounds. The drugs and investigational agents: pidnarulex (CX-5461; NSC782164), APTO-253 (NSC789042), BRACO-19 (NSC847499), peposertib (NSC802822), ceralasertib (NSC780249), elimusertib (NSC800525), camonsertib (NSC841442), AZD-1390 (NSC803789), olaparib (NSC753686), talazoparib (NSC767125), ART-558 (NSC835418), sotorasib (NSC818433), MRTX-1133 (NSC836407), SN-38 (NSC673596), topotecan (NSC609699), etoposide (NSC141540), doxorubicin (NSC123127), gemcitabine (NSC613327), 5-fluorouracil (NSC19893), paclitaxel (NSC125973), vemurafenib (NSC761431), panobinostat (NSC761190), R-306465 (JNJ-16241199; NSC773264), adavosertib (NSC754352), TP-3654 (NSC805149), carboplatin (NSC241240), KSQ-4279 (NSC840948), and staurosporine (NSC755774) were obtained from the National Cancer Institute (NCI) Developmental Therapeutics Program Chemical Repository (34). The FDA-approved anticancer drug set is available from the NCI Developmental Therapeutics Program. […] The stock solutions were prepared in dimethyl sulfoxide (DMSO, Sigma-Aldrich, St. Louis, MO, cat. D2650) at 800-fold the tested concentration and stored at -70 degrees C prior to their use. All drugs and investigational agents were tested over a range starting from a high concentration at or near the clinical Cmax and decreasing in half-log increments. If the clinical Cmax for an agent had not been determined, the highest concentration tested was 10 microM.
2.3 Cell Culture. All cells were maintained in an incubator at 37 degrees C and 5% CO2 with 95% humidity. The PDC lines were cultured according to standard operating procedures established by the NCI PDMR. All PDCs were thawed and cultured in Matrigel-coated flasks prepared with a working solution of 1X Ham's F-12 nutrient mix, without supplementation (Invitrogen, cat. 11765054), 100 U/mL penicillin-streptomycin (Invitrogen, cat. 15140122), and 2.5% Matrigel (Corning Inc., cat. 354248) for the first three passages. The 857933-349-R-J2-PDC line was cultured in 6C/Colon 1B media, which includes advanced DMEM/F-12 (Thermo Fisher Scientific, cat. 12634028), 10 mM HEPES (Thermo Fisher Scientific, cat. 15630080), 1X GlutaMAX supplement (Thermo Fisher Scientific, cat. 35050061), 0.1 mg/mL primocin (InvivoGen, cat. ant-pm-2), 10% defined fetal bovine serum, heat inactivated (HyClone Laboratories Inc., cat. SH30070.03HI), 50% L-WRN conditioned media (ATCC, cat. CRL-3276), 1.25 mM N-Acetyl-L-cysteine (Sigma-Aldrich, cat. A9165), 10 mM nicotinamide (Sigma-Aldrich, cat. N0636), 1X B-27 supplement (Thermo Fisher Scientific, cat. 17504044), 1X N-2 supplement (Thermo Fisher Scientific, cat. 17502048), 10 microM Y-27632 dihydrochloride (Tocris Bioscience, cat. 1254), and 50 ng/mL human EGF recombinant protein (Thermo Fisher Scientific, cat. PHG0311). The 485176-168-R4-J1-PDC line was cultured in Panc media, which includes all 6C/Colon 1B media components plus 100 ng/mL human FGF-10 (Thermo Fisher Scientific, cat. 100-26), 500 nM SB-431542 (Selleckchem, cat. S1067), and gastrin (Tocris, cat. 3006).
[…]
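Further: spheroids exposed to agents for seven days before readout.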
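Wherever viability, T/C is given: percent of vehicle control viability where 100% = DMSO wells.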

COc1ccc([C@@H](O)c2cc(-c3ncnc4cc(N5CCOCC5)ccc34)c(F)cc2Cl)nn1 + CN(C)c1ccc(Nc2c3ccc(NC(=O)CCN4CCCC4)cc3nc3cc(NC(=O)CCN4CCCC4)ccc23)cc1
2.73 µM: IC50 (second compound 10 µM)
inactive: viability, T/C (second compound 0.0316 µM, first compound 0.0316 µM) 88.5% | viability, T/C (second compound 0.0316 µM, first compound 0.1 µM) 89% | viability, T/C (second compound 0.0316 µM, first compound 0.316 µM) 79.8% | viability, T/C (second compound 0.0316 µM, first compound 1 µM) 85.3% | viability, T/C (second compound 0.0316 µM, first compound 3.16 µM) 58.4% | viability, T/C (second compound 0.0316 µM, first compound 10 µM) 44.6% | viability, T/C (second compound 0.1 µM, first compound 0.0316 µM) 95.7% | viability, T/C (second compound 0.1 µM, first compound 0.1 µM) 90.5% | viability, T/C (second compound 0.1 µM, first compound 0.316 µM) 95.7% | viability, T/C (second compound 0.1 µM, first compound 1 µM) 73.5% | viability, T/C (second compound 0.1 µM, first compound 3.16 µM) 59% | viability, T/C (second compound 0.1 µM, first compound 10 µM) 36.9% | viability, T/C (second compound 0.316 µM, first compound 0.0316 µM) 89.3% | viability, T/C (second compound 0.316 µM, first compound 0.1 µM) 82.3% | viability, T/C (second compound 0.316 µM, first compound 0.316 µM) 79.2% | viability, T/C (second compound 0.316 µM, first compound 1 µM) 70.7% | viability, T/C (second compound 0.316 µM, first compound 3.16 µM) 62.8% | viability, T/C (second compound 0.316 µM, first compound 10 µM) 36.3% | viability, T/C (second compound 1 µM, first compound 0.0316 µM) 78.9% | viability, T/C (second compound 1 µM, first compound 0.1 µM) 84.1% | viability, T/C (second compound 1 µM, first compound 0.316 µM) 82.7% | viability, T/C (second compound 1 µM, first compound 1 µM) 70.2% | viability, T/C (second compound 1 µM, first compound 3.16 µM) 49.6% | viability, T/C (second compound 1 µM, first compound 10 µM) 30.2% | viability, T/C (second compound 3.16 µM, first compound 0.0316 µM) 71.6% | viability, T/C (second compound 3.16 µM, first compound 0.1 µM) 70.9% | viability, T/C (second compound 3.16 µM, first compound 0.316 µM) 73.7% | viability, T/C (second compound 3.16 µM, first compound 1 µM) 60.4% | viability, T/C (second compound 3.16 µM, first compound 3.16 µM) 50.9% | viability, T/C (second compound 3.16 µM, first compound 10 µM) 29.6% | viability, T/C (second compound 10 µM, first compound 0.0316 µM) 72.9% | viability, T/C (second compound 10 µM, first compound 0.1 µM) 81.5% | viability, T/C (second compound 10 µM, first compound 0.316 µM) 69.5% | viability, T/C (second compound 10 µM, first compound 1 µM) 62.2% | viability, T/C (second compound 10 µM, first compound 3.16 µM) 49% | viability, T/C (second compound 10 µM, first compound 10 µM) 25.2%
3.02 µM: IC50 (second compound 1 µM)
4.79 µM: IC50 (second compound 0.1 µM)
5.21 µM: IC50 (second compound 0.316 µM)
6.35 µM: IC50 (second compound 0.0316 µM)
3.14 µM: IC50 (second compound 3.16 µM)
